Data reported in patent EP0180615B1, “NOVEL ATRIAL NATRIURETIC/VASODILATOR POLYPEPTIDES” (priority 1984, dated 1995).
Positions of bridges follow the written chain, without caps; N, C: chain ends. Residues, ends and D or L forms follow the SMILES beside them.

Assays:
[1] = system: cultured bovine aortic smooth muscle cells; assay: cyclic GMP accumulation in cultured aortic smooth muscle cells; format: cell-based; conditions: dose-response, % of maximal cyclic GMP increase (Figure 11A)
Excerpt: (§1) Since the agonistic action of ANVP in vascular smooth muscle not only results from binding to specific receptors, but is also associated with increases in cyclic GMP, the effects of ANVPs and analogs on cyclic GMP accumulation were examined using the same cultured cells. […] In Figure 11A & B, the relative activities of ANVP and analogs on cyclic GMP accumulation in aortic smooth muscle and endothelial cells are shown. The data is plotted in a dose-response relationship (log dose vs % of maximal cyclic GMP increases).

[2] = system: cultured bovine aortic endothelial cells; assay: cyclic GMP accumulation in cultured aortic endothelial cells; format: cell-based; conditions: dose-response, % of maximal cyclic GMP increase (Figure 11B)
Excerpt: as §1

[3] = system: binding sites on vascular smooth muscle cells; assay: 125I-ANVP binding and displacement on cultured vascular wall cells; set-up: species or system bovine; conditions: unlabelled competitor; vascular smooth muscle cells (Table III)
Procedure: Therefore, cells of vascular wall origin, e.g. bovine aortic smooth muscle and endothelial cells, were used to determine binding of ANVP compounds to specific receptors and associated cyclic GMP increases were measured.
Binding assays were performed as follows: ANVPs were labelled with ^1251 according to the procedure of Schenk, et al., J. Biol. Chem., 259:14941-14951 (1984). This procedure utilizes glucose oxidase and lactoperoxidase mediated oxidations to transfer ^1251 to the tyrosine on the ANVP molecule. ^1251-ANVP was then added to 10 mm confluent cultures of vascular wall cells and incubated at 37 °C.
Thus, the displacement of ^1251-ANVP binding by ANVPs and analogs as a function of concentration is a reflection of their potency to bind to the vascular wall and alter the contractile state of the vessel.

anesthetized dogs = assay: renal and hemodynamic effects of constant infusion in anesthetized dogs; format: in vivo; conditions: 1 µg/kg bolus, followed by 0.1 µg/kg/min for 1 hour
Procedure: Renal and hemodynamic effects have also been measured in anesthetized dogs receiving a constant infusion of the compound rANVP(126-149) (1 µg/kg bolus, followed by 0.1 µg/kg/min for 1 hour). Immediate effects were noted on blood pressure, GFR and urine flow rate and electrolyte excretion which were sustained throughout the infusion. The "experimental" data presented for these parameters in Table IV are the average values obtained during the infusion. […] All these parameters returned to control (i.e. pre-infusion) levels during the recovery period (i.e. following termination of the infusion).
(§2) Thus, ANVPs are able to block the effects of the renin-angiotensin system at several levels: (1) they antagonize the direct actions of angiotensin on its target organs (blood vessels and the adrenal); and (2) inhibit renin secretion, which leads to a reduced rate of angiotensin formation in the blood.

isolated adrenal cells = assay: angiotensin-stimulated aldosterone production by isolated adrenal cells; format: cell-based
Excerpt: as §2

intact rat = assay: natriuresis after bolus injection in the intact anesthetized rat; format: in vivo; conditions: Inactin anesthetized rats on constant saline infusion
Procedure: Synthetic ANVP compounds rANVP(126-149), rANVP(126-150) and hANVP(127-151) were also found to be natriuretic in the intact rat. These compounds were administered as a bolus injection to Inactin anesthetized rats (100 mg/kg, average weight 399 g) which were maintained on a constant infusion of normal saline at 2.2 ml/hr. […] Data are expressed as mean ± SE.

isolated rat kidney = assay: isolated perfused rat kidney
Procedure: The activity of rANVP(126-149) was measured in the isolated rat kidney. Functioning isolated rat kidneys were perfused in a closed-circuit system, as described in Camargo, M.J.F. et al. Am.J.Physiol., 246:F447-F456 (1984). After control clearance periods, 0.1 to 1.0 µg of the compound was added to the perfusate. The effects on multiple parameters were noted. These peak values are expressed in Table I as the experimental data. It is clear that rANVP(126-149) caused urine flow rate, urinary sodium excretion, filtration fraction and glomerular filtration rate to increase.
Isolated rat kidneys were treated as described in Table I. Control periods for each compound are denoted by C and experimental periods following the addition of compounds are denoted by E. V-urine flow rate UNaV-urinary sodium excretion rate, GFR-glomerular filtration rate. Data represent the mean of 3-8 experiments.
Samples of the above expressed material were also tested for natriuretic and diuretic activity using the isolated perfused rat kidney model as described by Camargo, M. et al., Am. J. Physiol. 246:F447-F456-(1984). As shown in Table VIII material synthesized and secreted by yeast cultures containing YEp-a-NF-5 and purified as described above through the SP-Sephadex step increased urinary Na^+ excretion approximately 3-fold and urinary volume 2-fold as examined during repeated test periods of 10 minutes each. […] No significant increase occurred in urinary Na^+ excretion, urinary volume, glomerular filtration or renal resistance when the same experiment was performed on material synthesized and secreted by yeast cultures containing the reverse orientation control plasmid YEp-a-NF-7 and purified through SP-Sephadex@.

[4] = 0.1 to 1.0 µg added to the perfusate after control clearance periods, peak values
[5] = 0.1 to 1.0 µg added to the perfusate, perfused in the absence of vasoconstrictors

With `CC[C@H](C)[C@@H]1NC(=O)[C@H](CCCNC(=N)N)NC(=O)[C@H](CC(=O)O)NC(=O)[C@H]([C@@H](C)CC)NC(=O)[C@H](CCCNC(=N)N)NC(=O)CNC(=O)CNC(=O)[C@H](Cc2ccccc2)NC(=O)[C@@H](NC(=O)[C@H](CO)NC(=O)[C@H](CO)NC(=O)[C@@H](N)CCCNC(=N)N)CSSC[C@@H](C(=O)N[C@@H](CC(N)=O)C(=O)N[C@@H](CO)C(=O)N[C@@H](Cc2ccccc2)C(=O)N[C@@H](CCCNC(=N)N)C(=O)N[C@@H](Cc2ccc(O)cc2)C(=O)O)NC(=O)CNC(=O)[C@H](CC(C)C)NC(=O)[C@@H](C)NC(=O)[C@H](CO)NC(=O)[C@H](CCC(N)=O)NC(=O)[C@H](C)NC(=O)CNC1=O` [[D-Ala^142]rANVP(126-150), [D-Ala'^42]rANVP(126-150)] the “rank order of potency, cyclic GMP accumulation” value (“rank order of potency” for short) [1] was “> rANVP(127-150) = other D amino acid substitutions”, the “rank order of potency” value [2] was “> rANVP(127-150) = other D amino acid substitutions” and the “displacement of 125I-ANVP binding” value [3] was “most reactive”.
For vasopressin, the “displacement of 125I-ANVP binding” value [3] was “not by a variety of hormones”.
`CC[C@H](C)[C@@H]1NC(=O)[C@H](CCCNC(=N)N)NC(=O)[C@H](CC(=O)O)NC(=O)[C@H]([C@@H](C)CC)NC(=O)[C@H](CCCNC(=N)N)NC(=O)CNC(=O)CNC(=O)[C@H](Cc2ccccc2)NC(=O)[C@@H](NC(=O)[C@H](CO)NC(=O)[C@H](CO)NC(=O)[C@@H](N)CCCNC(=N)N)CSSC[C@@H](C(=O)N[C@@H](CC(N)=O)C(=O)N[C@@H](CO)C(=O)N[C@@H](Cc2ccccc2)C(=O)N[C@@H](CCCNC(=N)N)C(=O)O)NC(=O)CNC(=O)[C@H](CC(C)C)NC(=O)CNC(=O)[C@H](CO)NC(=O)[C@H](CCC(N)=O)NC(=O)[C@H](C)NC(=O)CNC1=O` [rANVP(126-149), rANVP (126-149)] (H-RSSCFGGRIDRIGAQSGLGCNSFR-OH; disulfide 4-20) was tested, and the “rank order of potency” value [1] was “> rANVP(127-150) = other D amino acid substitutions”, the “rank order of potency” value [2] was “> rANVP(127-150) = other D amino acid substitutions” and the GFR rose (anesthetized dogs) was 25-35%. For the same compound, the “Mean arterial pressure (MAP) fell” value (anesthetized dogs) was 10-15%, the diuresis and natriuresis (anesthetized dogs) was “sustained diuresis and natriuresis” and the “plasma aldosterone (PA)” value (anesthetized dogs) was “significant decreases”. The “plasma renin activity (PRA)” value (anesthetized dogs) was “significant decreases”, the “ability of angiotensin to stimulate aldosterone production” value (isolated adrenal cells) was “inhibits” and the “natriuretic in the intact rat” value (intact rat) was “natriuretic”. The urinary sodium excretion (isolated rat kidney; [4]) was “increase”, the urine flow rate (isolated rat kidney; [4]) was “increase” and the filtration fraction (isolated rat kidney; [5]) was “increase”. The glomerular filtration rate (isolated rat kidney; [5]) was “increase”.
With glucagon the “displacement of 125I-ANVP binding” value [3] was “not by a variety of hormones”.
For `CC[C@H](C)[C@@H]1NC(=O)[C@H](CCCNC(=N)N)NC(=O)[C@H](CC(=O)O)NC(=O)[C@H]([C@@H](C)CC)NC(=O)[C@H](CCCNC(=N)N)NC(=O)CNC(=O)[C@@H](C)NC(=O)[C@H](Cc2ccccc2)NC(=O)[C@@H](NC(=O)[C@H](CO)NC(=O)[C@H](CO)NC(=O)[C@@H](N)CCCNC(=N)N)CSSC[C@@H](C(=O)N[C@@H](CC(N)=O)C(=O)N[C@@H](CO)C(=O)N[C@@H](Cc2ccccc2)C(=O)N[C@@H](CCCNC(=N)N)C(=O)N[C@@H](Cc2ccc(O)cc2)C(=O)O)NC(=O)CNC(=O)[C@H](CC(C)C)NC(=O)CNC(=O)[C@H](CO)NC(=O)[C@H](CCC(N)=O)NC(=O)[C@H](C)NC(=O)CNC1=O` [[D-Ala^131]rANVP(126-150)], the “rank order of potency” value [1] was “> rANVP(127-150) = other D amino acid substitutions” and the “rank order of potency” value [2] was “> rANVP(127-150) = other D amino acid substitutions”.
In the case of angiotensin, the “displacement of 125I-ANVP binding” value [3] was “not by a variety of hormones”.
